{
  "source": "patent US11919858B2",
  "about": "“Aminonapthoquinone compounds and pharmaceutical composition for blocking ubiquitination-proteasome system in diseases” (Calgent Biotechnology Co., Ltd., priority 2015, dated 2024)",
  "key": {"[1]": {"system": "HCT116 human colorectal adenocarcinoma", "method": "MPT0L056 was used to evaluate for activity against the HCT116 human colorectal adenocarcinoma.\nHowever, MPT0E028 was administered orally (p.o.) in 1.0% CMC and 0.5% Tween 80 and given dose at 25 mg/kg daily to end schedule.\nEach animal was euthanized when the tumors reached the predetermined endpoint size of 1,000 mm^3. The time to endpoint (TTE) for each mouse was calculated by the following equation:\n[formula] where TTE is expressed in days, endpoint volume is in mm^3, b is the intercept, and m is the slope of the line obtained by linear regression of a log-transformed tumor growth data set. The data set is comprised of the first observation that exceeded the study endpoint volume and the three consecutive observations that immediately preceded the attainment of the endpoint volume. The calculated TTE is usually less than the day on which an animal is euthanized for tumor size. […] An animal classified as having died from treatment-related (TR) causes or non-treatment-related metastasis (NTRm) causes was assigned a TTE value equal to the day of death. An animal classified as having died from non-treatment-related (NTR) causes was excluded from TTE calculations.\nTreatment efficacy was determined from tumor growth delay (TGD), which is defined as the increase in the median TTE for a treatment group compared to the control group: TGD=T−C, expressed in days, or as a percentage of the median TTE of the control group:\n[formula] where: • T=median TTE for a treatment group, • C=median TTE for control Group 1.\nTreatment efficacy was also determined from the tumor volumes of animals remaining in the study on the last day, and from the number of regression responses. The MTV(n) is defined as the median tumor volume on D59 in the number of animals remaining, n, whose tumors have not attained the endpoint volume.\nTreatment may cause a partial regression (PR) or a complete regression (CR) of the tumor in an animal. […] An animal with a CR at the termination of a study is additionally classified as a tumor-free survivor (TFS).\nAnimals were weighed daily for the first five days, then twice weekly until the completion of the study. The mice were examined frequently for overt signs of any adverse, drug-related side effects. Acceptable toxicity for the MTD of cancer drugs is defined as a group mean BW loss of 20% or less during the test, and not more than one TR death among ten animals. A death is classified as TR if there is evidence of treatment side effects from clinical signs and/or necropsy or from unknown causes during dosing period or within 10 days of the last dose. A death is classified as NTR if there is no evidence that the death was related to treatment side effects.\nThe logrank test was used to determine the statistical significance of the difference between the TTE values of two groups, except any NTR deaths. Statistical and graphical analyses were performed with Prism 3.03 (GraphPad) for Windows. The two-tailed statistical analyses were conducted at P=0.05. Kaplan-Meier plots show the percentage of animals remaining in the study versus time. The Kaplan-Meier plots use the same data set as the log rank test. The tumor growth curves show the group median tumor volume, on a log scale as a function of time."}, "[2]": {"system": "human A2780 ovarian adenocarcinoma", "test": "Human A2780 ovarian cancer xenograft in female nude mice (TMU-A2780-e0001)", "type": "in vivo", "conditions": "bortezomib 1 mg/kg QWK to end"}, "[3]": {"system": "human MDA-MB-231 breast adenocarcinoma", "test": "Human MDA-MB-231 breast cancer xenograft in female nude mice (TMU-MDA-MB-231-e0002)", "conditions": "bortezomib 1 mg/kg QWK to end"}, "[4]": {"conditions": "Group 3: bortezomib 1 mg/kg iv qwk to endpoint"}, "[5]": {"conditions": "Group 3: bortezomib 1 mg/kg iv qwk to endpoint, listed as Bortezomib"}, "[6]": {"conditions": "Group 6: bortezomib 1 mg/kg iv qwk + MPT0E028 25 mg/kg po qd to endpoint"}, "[7]": {"conditions": "Group 6: bortezomib 1 mg/kg iv qwk + MPT0E028 25 mg/kg po qd to endpoint, listed as Bortezomib"}},
  "note": "Where two headings read alike, the source gives them in different places.",
  "data": [
    {"smiles": "CC(C)C[C@H](NC(=O)[C@H](Cc1ccccc1)NC(=O)c1cnccn1)B(O)O", "note": "[bortezomib, reference compound]", "values": [
      {"measurement": "Median survival", "setting": "[1]; Group 1 vs 3: bortezomib 1 mg/kg", "result": 38.95},
      {"measurement": "Median survival", "setting": "[1]; Group 1 vs 6: bortezomib + MPT0E028 1/25 mg/kg", "result": 38.4},
      {"measurement": "% TGD", "setting": "[1]; [4]", "result": 71, "unit": "%"},
      {"measurement": "MTV (n) Day 59", "setting": "[1]; [4]", "result": 683, "unit": "mm^3"},
      {"measurement": "Median TTE", "setting": "[1]; [4]", "result": 38.9, "unit": "days"},
      {"measurement": "No. of CR", "setting": "[1]; [4]", "result": 2},
      {"measurement": "No. of LTTFS", "setting": "[1]; [4]", "result": 0},
      {"measurement": "No. of NTR", "setting": "[1]; [4]", "result": 0},
      {"measurement": "No. of PR", "setting": "[1]; [4]", "result": 1},
      {"measurement": "No. of TR", "setting": "[1]; [4]", "result": 0},
      {"measurement": "T-C", "setting": "[1]; [4]", "result": 16.2, "unit": "days"},
      {"measurement": "antitumor activity (logrank analysis)", "setting": "[1]; [4]", "result": "produced significant antitumor activity"},
      {"measurement": "Logrank Significance", "setting": "[1]; Group 3: bortezomib 1 mg/kg iv qwk to endpoint, compared to Group 1", "result": "* (* = P < 0.05)"},
      {"measurement": "% TGD", "setting": "[1]; [5]", "result": 71, "unit": "%"},
      {"measurement": "No. of CR", "setting": "[1]; [5]", "result": "two"},
      {"measurement": "No. of PR", "setting": "[1]; [5]", "result": "one"},
      {"measurement": "% TGD", "setting": "[1]; [6]", "result": 69, "unit": "%"},
      {"measurement": "MTV (n) Day 59", "setting": "[1]; [6]", "result": 0, "unit": "mm^3"},
      {"measurement": "Median TTE", "setting": "[1]; [6]", "result": 38.4, "unit": "days"},
      {"measurement": "No. of CR", "setting": "[1]; [6]", "result": 1},
      {"measurement": "No. of LTTFS", "setting": "[1]; [6]", "result": 1},
      {"measurement": "No. of NTR", "setting": "[1]; [6]", "result": 4},
      {"measurement": "No. of PR", "setting": "[1]; [6]", "result": 1},
      {"measurement": "No. of TR", "setting": "[1]; [6]", "result": 0},
      {"measurement": "T-C", "setting": "[1]; [6]", "result": 15.7, "unit": "days"},
      {"measurement": "% TGD", "setting": "[1]; [7]", "result": 69, "unit": "%"},
      {"measurement": "No. of CR", "setting": "[1]; [7]", "result": "one"},
      {"measurement": "No. of LTTFS", "setting": "[1]; [7]", "result": "one"},
      {"measurement": "No. of PR", "setting": "[1]; [7]", "result": "one"},
      {"measurement": "antitumor activity", "setting": "[2]", "result": "showed antitumor activity"},
      {"measurement": "antitumor activity", "setting": "[3]", "result": "did not show antitumor activity"}
    ]}
  ]
}
